Data on eleven compounds can be found in PMC4627800, “Allelic Variation of Cytochrome P450s Drives Resistance to Bednet Insecticides in a Major Malaria Vector” (PLoS Genetics, 2015).

For series [1], the target named is T1, BENCYP6P9b (Anopheles funestus, UniProt A0A0S1S7Y0). In words: Pyrethroid depletion (metabolism) assay with recombinant enzyme. The following applies: 20μM insecticide, 1 hour, vs -NADPH. It counts as biochemical.
Description: To establish whether allelic variation in CYP6P9a and CYP6P9b impact their metabolic activities toward insecticides, pyrethroids were screened with the recombinant enzymes from these genes. […] Membrane expressing recombinant CYP6P9a/-b and AgCPR, and reconstituted cytochrome b5 were added to the side of the tube and pre-incubated for 5 minutes at 30°C, with shaking at 1,200 rpm to activate the membrane. 20μM of test insecticide was then added into the final volume of 0.2ml (~2.5% v/v methanol), and reaction started by vortexing at 1,200 rpm and 30°C for 1 hour. Reactions were quenched with 0.1ml ice-cold methanol and incubated for 5 more minutes. Tubes were then centrifuged at 16,000 rpm and 4°C for 15 minutes, and 150μl of supernatant transferred into HPLC vials for analysis. Reactions were carried out in triplicates with experimental samples (+NADPH) and negative controls (-NADPH). 100μl of sample was loaded onto an isocratic mobile phase (90:10 v/v methanol to water) with a flow rate of 1ml/min, monitoring wavelength of 226nm and peaks separated with a 250mm C18 column (Acclaim 120, Dionex) on Agilent 1260 Infinity at 23°C. Enzyme activity was calculated as percentage depletion (the difference in the amount of insecticide(s) remaining in the +NADPH tubes compared with the–NADPH) and a t-test used for statistical analysis.
Series [2] deals with T2, FANGCYP6P9b (Anopheles funestus, UniProt A0A0S1RZ61). The description is as above. It is filed as biochemical. The following applies: 20μM insecticide, 1 hour, vs -NADPH.
The target in series [3] is T3, UGANCYP6P9b (Anopheles funestus, UniProt A0A0S1S7Y0). Described as above. As to conditions: 20μM insecticide, 1 hour, vs -NADPH. It counts as biochemical.
The target in a further series is MALCYP6P9a (Anopheles funestus, UniProt B5AII6). Described as above. It is filed as biochemical. The following applies: 20μM insecticide, 1 hour, vs -NADPH.
Another series addresses UGANCYP6P9a (Anopheles funestus, UniProt B5AII6). The series is described as above. The following applies: 20μM insecticide, 1 hour, vs -NADPH. It counts as biochemical.
Series [4] concerns the target T4, BENCYP6P9a (Anopheles funestus, UniProt A0A0S1RZ75). The description is as above. The following applies: 20μM insecticide, 1 hour, vs -NADPH. It counts as biochemical.
Description: (§5) Membrane expressing recombinant CYP6P9a/-b and AgCPR, and reconstituted cytochrome b5 were added to the side of the tube and pre-incubated for 5 minutes at 30°C, with shaking at 1,200 rpm to activate the membrane. 20μM of test insecticide was then added into the final volume of 0.2ml (~2.5% v/v methanol), and reaction started by vortexing at 1,200 rpm and 30°C for 1 hour. Reactions were quenched with 0.1ml ice-cold methanol and incubated for 5 more minutes. Tubes were then centrifuged at 16,000 rpm and 4°C for 15 minutes, and 150μl of supernatant transferred into HPLC vials for analysis. Reactions were carried out in triplicates with experimental samples (+NADPH) and negative controls (-NADPH). 100μl of sample was loaded onto an isocratic mobile phase (90:10 v/v methanol to water) with a flow rate of 1ml/min, monitoring wavelength of 226nm and peaks separated with a 250mm C18 column (Acclaim 120, Dionex) on Agilent 1260 Infinity at 23°C. Enzyme activity was calculated as percentage depletion (the difference in the amount of insecticide(s) remaining in the +NADPH tubes compared with the–NADPH) and a t-test used for statistical analysis.
Series [5] concerns the target T5, FANGCYP6P9a (Anopheles funestus, UniProt K7Z0P3). The series is described as above. It is filed as biochemical. The following applies: 20μM insecticide, 1 hour, vs -NADPH.
Description: as §5
For series [6], the target named is T6, MALCYP6P9b (Anopheles funestus, UniProt B5AII7). The series is described as above. It counts as biochemical. The following applies: 20μM insecticide, 1 hour, vs -NADPH.
Description: as §5
Series [7] has as its target T3, UGANCYP6P9b. Put plainly: Fluorogenic probe O-dealkylation, initial testing. It counts as biochemical. As to conditions: UGANCYP6P9b vs UGANCYP6P9a; 1μM probe. The procedure: Four probes: 7-ethoxyresurofin (7-ER), 7-ethoxy-4-trifluoromethylcoumarin (7-EFC), 7-methoxy-4-trifluoromethylcoumarin (MFC) and diethoxyfluorescein (DEF) were initially tested with the various recombinant CYP6P9a and CYP6P9b proteins. In a total volume of 225μl containing ~10pmol P450, buffered with 50mM potassium phosphate buffer (KPi at pH 7.4 with 5mM MgCl2), 1μM probe substrate was added. Membranes were activated for 5 minutes at 37°C in fluorescence spectrophotometer Infinite M200 (TECAN) before 25μl NADPH regeneration buffer (1mM glucose-6-phosphate (G6P), 0.25mM MgCl2, 0.1mM NADP and 1U/ml glucose-6-phosphate dehydrogenase (G6PDH) prepared in KPi pH 7.4) was added. All reactions were conducted in three replicates with negative control (–NADPH) devoid of the regeneration buffer. […]. Results were analysed using Magellan v6.2 software.

A further series concerns CYP1A2 Glu^318Asp. On the set-up: method as in PMID 7910007. As to conditions: human CYP1A2 ref [37]; cited from earlier work.
For a further series, the system named is CYP6P9a/CYP6P9b. In words: in vitro. The following applies: inhibition of DEF dealkylation; MALCYP6P9a, BENCYP6P9a, MALCYP6P9b, UGANCYP6P9b; DDT value for all proteins excepting UGANCYP6P9b. It counts as biochemical, Anopheles funestus. On the procedure: (§1) To further assess differences in the degree of binding of the various recombinant proteins to insecticides from different classes, inhibition assay was conducted with DEF and ten insecticides (inhibitors). The potent P450s inhibitor miconazole was utilised as a positive control inhibitor. IC50 determination was conducted as described in previous studies. […]. The 96 well-plate was pre-incubated for 5 minutes at 37°C and then 25μl regeneration buffer (7.8mg glucose-6-phosphate (G6P), 0.25mM MgCl2, 1.7mg NADP, 6U/ml glucose-6-phosphate dehydrogenase and 2% w/v NaHCO3) incorporated. Fluorescence was monitored for 21 cycles at interval of 1 minute with shaking at every step. Results were analysed using Magellan v6.2 software and inhibition at each inhibitor concentration and incubation time calculated as residual control activity towards DEF.

In series [8] the target is T3, UGANCYP6P9b. Put plainly: Inhibition of DEF dealkylation by insecticides (IC50). It counts as biochemical. As to conditions: compared with averagely 10μM for the other proteins. The procedure:
as §1

Series [9] relates to CYP6P9a/CYP6P9b (MALCYP6P9a, BENCYP6P9a, MALCYP6P9b, UGANCYP6P9b). In words: in vitro. It counts as biochemical, Anopheles funestus. The following applies: Anopheles funestus, pH 7.4, inhibition of DEF dealkylation, DDT value for all proteins excepting UGANCYP6P9b. The procedure: as §1
The test system of the next series is CYP6Z2. The following applies: cited from earlier work.
The next series deals with CYP6Z8. On the set-up: method as in ref [8] (S1 Text). As to conditions: cited from earlier work; for Kcat: Ae. aegypti CYP6Z8 ref [8] (S1 Text).
Series [10] has as its system transgenic flies over-expressing FANGCYP6P9b. The following applies: 0.15% deltamethrin paper. The procedure:
(§2) Primers used for this PCR are given in S8 Table. PCR conditions, cloning techniques, construction of transgenic flies and expression of candidate genes was conducted as described in previous studies, with more details provided in S1 Text. For control group, flies with the same background as the UAS transgenic lines but devoid of the UAS construct with the candidate gene were crossed with the driver Actin5C-GAL4 line to generate Actin5C-GAL4-null flies.
(§3) These papers were then rolled and introduced into 45 cc plastic vials. The vials were then plugged with cotton wool soaked in 5% sucrose. 20–25 (2–4 days old, post-eclosion F1 females) were selected for the bioassays and introduced into the vials. Mortality plus knockdown was scored after 1 hr, 2 hrs, 3 hrs, 6 hrs, 12 hrs and 24 hrs post-exposure to the discriminating dose of the insecticides.

Series [11] deals with transgenic flies over-expressing FANGCYP6P9a. The following applies: 0.15% deltamethrin paper, 3 hrs. On the procedure: as §2, §3
The subject of series [12] is transgenic flies over-expressing MALCYP6P9b. The following applies: 0.15% deltamethrin paper. The procedure: as §2, §3
Series [13] concerns transgenic flies over-expressing MALCYP6P9a. The following applies: 0.15% deltamethrin paper, 3 hrs. The procedure: as §2, §3
Series [14] addresses T2, FANGCYP6P9b. The procedure: (§4) Reactions were performed in triplicates both for +NADPH (experimental tubes) and–NADPH (negative control). K m and V max were established from the plot of substrate concentrations against the initial velocities and fitting of the data to the Michaelis-Menten module using the least squares non-linear regression, as described in the GraphPad Prism 6.03 Software (GraphPad Inc., La Jolla, CA, USA).

Series [15] addresses T5, FANGCYP6P9a. The procedure:
as §4

For series [16], the target named is T3, UGANCYP6P9b. Put plainly: Steady-state kinetics of pyrethroid metabolism. It counts as biochemical. The procedure: as §4
The target of series [17] is T1, BENCYP6P9b. Put plainly: Steady-state kinetics of pyrethroid metabolism. It counts as biochemical. The procedure: as §4
Series [18] deals with T4, BENCYP6P9a. Put plainly: Steady-state kinetics of pyrethroid metabolism. It counts as biochemical. On the procedure: as §4
The target in series [19] is T6, MALCYP6P9b. In words: Steady-state kinetics of pyrethroid metabolism. It is filed as biochemical. The procedure:
as §4

The next series has as its system CYP6M2. On the set-up: method as in ref [5] (S1 Text). As to conditions: An. gambiae CYP6M2 ref [5] (S1 Text); cited from earlier work.

Where two headings read alike, the source gives them in different places.

Description for UGANCYP6P9a: as §5

With `Cc1c(COC(=O)[C@@H]2[C@H](/C=C(\Cl)C(F)(F)F)C2(C)C)cccc1-c1ccccc1` (racemic) [bifenthrin], the Percentage depletion at BENCYP6P9b [1] amounted to 89.19±1.01 %; at FANGCYP6P9b [2], 22.38±5.08%; on UGANCYP6P9b [3], 88.8±1.61 %; on MALCYP6P9a, 60.48±2.65 %; at UGANCYP6P9a, 50.31±3.8 %; on BENCYP6P9a [4] it was 51.02±0.75 %. In addition, the Percentage depletion at FANGCYP6P9a [5] is reported as 16.6±5.41%; on MALCYP6P9b [6] it was “more than 80%”; on MALCYP6P9b [6] (listed as Bifenthrin) it was 81.6±0.25 %.
`CC1(C)[C@H](C(=O)O[C@H](C#N)c2cccc(Oc3ccccc3)c2)[C@@H]1/C=C(\Cl)C(F)(F)F` (racemic) [λ-cyhalothrin]: the Percentage depletion amounted to 49.35±4.41 % on BENCYP6P9b [1]; 15.49±3.13% on FANGCYP6P9b [2]; 78.76±1.31 % on UGANCYP6P9b [3]; 75.41±1.72% at MALCYP6P9a; 47.74±1.5% on UGANCYP6P9a; 52.45±1.74 % at BENCYP6P9a [4]. For the same compound, at FANGCYP6P9a [5], the Percentage depletion turned out to be 15.46±4.43%.
As to `CCOc1ccc2c(C(F)(F)F)cc(=O)oc2c1` [7-EFC, 7-ethoxy-4-trifluoromethylcoumarin], the “O-dealkylation activity, fold of UGANCYP6P9a” value at UGANCYP6P9b [7] worked out at 17.9 fold.
As to `CCOc1ccc2ccc(=O)oc2c1` [7-ethoxycoumarin], the “increase of Kcat of O-dealkylation by Glu^318Asp substitution” value in the series with CYP1A2 Glu^318Asp is recorded as 13 fold.
In general, IC50 refers to the concentration that gives 50% inhibition. Read a high IC50 as lower potency. Turning to `Clc1ccc(C(c2ccc(Cl)cc2)C(Cl)(Cl)Cl)cc1` [DDT], the IC50 was around 10 µM with CYP6P9a/CYP6P9b and “much higher value” at UGANCYP6P9b [8].
With `CNC(=O)Oc1cccc2c1OC(C)(C)O2` [bendiocarb], in [9], the IC50 was above 25 µM.
One may read the Km as the substrate concentration at which the rate is half of its maximum. For `O=c1ccc2nc3ccc(OCc4ccccc4)cc3oc-2c1` [benzyloxyresorufin], the Km with CYP6Z2 (An. gambiae CYP6Z2-mediated de-benzylation ref [7] (S1 Text)) and in the series on CYP6Z8 (Aedes aegypti CYP6Z8-mediated de-benzylation ref [8] (S1 Text)) was around 0.13 µM throughout. For the same compound, the Kcat in the series on CYP6Z2 (An. gambiae CYP6Z2 ref [7] (S1 Text)) is ~ 1.5 min^-1; with CYP6Z8, 0.00162 s⁻¹.
What is called mortality is the percentage killed. A high value points to fewer survivors. Take `CC1(C)[C@H](C(=O)O[C@H](C#N)c2cccc(Oc3ccccc3)c2)[C@@H]1C=C(Br)Br` [deltamethrin]: the mortality in [10] (1 hr) was 20%; in [10] (2 hrs), 53%; in series [10] (3 hrs) it was 62%; in series [10] (6 hrs), 70%; in series [10] (12 hrs), 81%; in series [10] (24 hrs), 93%. Further, the mortality in series [11] stood at 52%; in [12] (1 hr), 1.5%; in series [12] (2 hrs) it was 7.5%; in series [12] (3 hrs), 12.5%; in [12] (6 hrs), 16%; in series [12] (12 hrs), 21%. Further, the figures for the mortality in series [12] (24 hrs) and in series [13] were 41% and below 30%, respectively. In addition, the Percentage depletion at BENCYP6P9b [1] amounted to 62.03±1.14 %; at FANGCYP6P9b [2], 6.2±1.5%; on UGANCYP6P9b [3], 62.53±4.04 %; on MALCYP6P9a, 68.38±1.83 %; at UGANCYP6P9a it was 57.9±2.74 %; at BENCYP6P9a [4], 59.54±5.11 %. In addition, the Percentage depletion is on record as 18.11±2.15% at FANGCYP6P9a [5], “more than 80%” at MALCYP6P9b [6] and 81.69±2.27 % on MALCYP6P9b [6] (listed as Deltamethrin). For the same compound, the Kcat is 0.082 ± 0.0137 s⁻¹ at FANGCYP6P9b [14]; 0.0812 ± 0.0343 s⁻¹ at FANGCYP6P9a [15]; 10.44±4.00^b min^-1 on UGANCYP6P9b [16]; 13.63±5.40^b min^-1 at BENCYP6P9b [17]; 8.78±2.62^a min^-1 at BENCYP6P9a [18]; 12.09±1.44^b min^-1 at MALCYP6P9b [19]. Moreover, the values for the Km at FANGCYP6P9b [14], at MALCYP6P9b [19] and in the series with CYP6M2 were 19.5 ± 5.53 µM, 9.9 ± 1.65 µM and 2 µM, respectively.
Take `CCOc1ccc2nc3ccc(=O)cc-3oc2c1` [ethoxyresorufin]: the Kcat with CYP6Z8 was 0.0198 s⁻¹.
`CCOc1ccc(C(C)(C)COCc2cccc(Oc3ccccc3)c2)cc1` [etofenprox]: the Percentage depletion on BENCYP6P9b [1] is recorded as 37.15±4.15 %; at FANGCYP6P9b [2] it was 16.88±3.06%; at UGANCYP6P9b [3], 57.91±1.55 %; on MALCYP6P9a, 46.04±1.26 %; on UGANCYP6P9a it was 42.55±1.03 %; at BENCYP6P9a [4], 41.22±1.54 %. Also, the Percentage depletion on FANGCYP6P9a [5] amounted to 7.28±1.53%; on MALCYP6P9b [6], 71.59±1.42 %.
Take `CNC(=O)Oc1ccccc1OC(C)C` [propoxur]: the IC50 in [9] was above 25 µM.
